Measurements: ChEMBL document CHEMBL3779870, “Differential metabolism of 3FDT and docetaxel in RLMs, rats, and HLMs” (Eur J Med Chem, 2016)
pIC50: −log10 of the molar value.

Assays:
[1] = Drug metabolism in Sprague-Dawley rat feces assessed as 7-epi-3FDT formation at 40 mg/kg, iv administered as single dose after 24 hrs by HPLC-TIC chromatography; assay type: ADME, organism-based; settings: in vivo
Cytochrome P450 2C8 = biological target: T1, Cytochrome P450 2C8 (Homo sapiens, UniProt P10632); test: Drug metabolism assessed as recombinant human CYP2C8 mediated metabolite formation at 10 uM preincubated for 5 mins followed by addition of NADPH measured after 120 mins by HPLC-TIC chromatography; assay type: ADME; settings: recombinant enzyme, 2 h
T1 sequence (P10632 whole entry): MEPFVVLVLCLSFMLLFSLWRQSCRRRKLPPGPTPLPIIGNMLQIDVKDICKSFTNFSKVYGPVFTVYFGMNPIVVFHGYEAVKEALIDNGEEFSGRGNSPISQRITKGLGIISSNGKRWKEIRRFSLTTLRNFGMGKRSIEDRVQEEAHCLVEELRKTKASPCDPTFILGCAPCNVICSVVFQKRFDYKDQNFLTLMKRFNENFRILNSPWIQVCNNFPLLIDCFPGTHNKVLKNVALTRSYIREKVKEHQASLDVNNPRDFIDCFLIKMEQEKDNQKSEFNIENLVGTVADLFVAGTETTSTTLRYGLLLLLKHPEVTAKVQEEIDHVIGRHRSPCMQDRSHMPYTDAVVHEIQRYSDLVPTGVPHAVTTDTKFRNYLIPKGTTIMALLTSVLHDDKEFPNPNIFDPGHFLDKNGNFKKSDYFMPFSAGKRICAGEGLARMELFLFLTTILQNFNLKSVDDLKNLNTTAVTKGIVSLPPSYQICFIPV

Cytochrome P450 2C19 = Cytochrome P450 2C19 (Homo sapiens, UniProt P33261); test: Drug metabolism assessed as recombinant human CYP2C19 mediated metabolite formation at 10 uM preincubated for 5 mins followed by addition of NADPH measured after 120 mins by HPLC-TIC chromatography; assay type: ADME; settings: recombinant enzyme, 2 h
Sequence of Cytochrome P450 2C19 (P33261 whole entry): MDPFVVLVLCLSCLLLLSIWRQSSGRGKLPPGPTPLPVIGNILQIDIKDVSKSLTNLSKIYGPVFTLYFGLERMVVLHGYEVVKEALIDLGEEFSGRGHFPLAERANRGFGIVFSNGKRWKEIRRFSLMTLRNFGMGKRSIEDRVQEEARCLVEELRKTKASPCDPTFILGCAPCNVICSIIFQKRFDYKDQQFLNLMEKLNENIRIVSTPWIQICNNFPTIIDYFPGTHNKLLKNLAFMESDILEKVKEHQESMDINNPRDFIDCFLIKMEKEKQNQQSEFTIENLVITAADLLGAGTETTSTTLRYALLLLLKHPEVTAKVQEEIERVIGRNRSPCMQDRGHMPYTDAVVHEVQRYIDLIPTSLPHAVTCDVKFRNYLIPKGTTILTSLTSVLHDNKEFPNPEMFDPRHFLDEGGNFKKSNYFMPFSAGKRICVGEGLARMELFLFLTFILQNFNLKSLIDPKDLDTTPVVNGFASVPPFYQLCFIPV

Cytochrome P450 2A6 = biological target: T2, Cytochrome P450 2A6 (Homo sapiens, UniProt P11509); test: Drug metabolism assessed as recombinant human CYP2A6 mediated metabolite formation at 10 uM preincubated for 5 mins followed by addition of NADPH measured after 120 mins by HPLC-TIC chromatography; assay type: ADME; settings: recombinant enzyme, 2 h
T2 sequence (P11509 whole entry): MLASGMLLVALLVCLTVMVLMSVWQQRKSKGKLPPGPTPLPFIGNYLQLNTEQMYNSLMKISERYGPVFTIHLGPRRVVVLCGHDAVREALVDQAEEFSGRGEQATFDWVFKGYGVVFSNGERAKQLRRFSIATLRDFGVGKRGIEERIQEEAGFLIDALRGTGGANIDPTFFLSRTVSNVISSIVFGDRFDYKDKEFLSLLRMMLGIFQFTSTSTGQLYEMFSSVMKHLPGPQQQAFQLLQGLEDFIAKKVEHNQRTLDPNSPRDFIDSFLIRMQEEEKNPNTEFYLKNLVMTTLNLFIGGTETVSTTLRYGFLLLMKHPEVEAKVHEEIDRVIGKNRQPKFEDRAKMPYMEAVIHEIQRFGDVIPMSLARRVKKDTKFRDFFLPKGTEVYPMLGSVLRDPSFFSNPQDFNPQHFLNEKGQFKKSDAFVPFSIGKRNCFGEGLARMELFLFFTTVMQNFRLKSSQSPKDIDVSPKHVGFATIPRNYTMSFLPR

Cytochrome P450 2E1 = Cytochrome P450 2E1 (Homo sapiens, UniProt P05181); test: Drug metabolism assessed as recombinant human CYP2E1 mediated metabolite M4 formation at 10 uM preincubated for 5 mins followed by addition of NADPH measured after 120 mins by HPLC-TIC chromatography; assay type: ADME; settings: recombinant enzyme, 2 h
Sequence of Cytochrome P450 2E1 (P05181 whole entry): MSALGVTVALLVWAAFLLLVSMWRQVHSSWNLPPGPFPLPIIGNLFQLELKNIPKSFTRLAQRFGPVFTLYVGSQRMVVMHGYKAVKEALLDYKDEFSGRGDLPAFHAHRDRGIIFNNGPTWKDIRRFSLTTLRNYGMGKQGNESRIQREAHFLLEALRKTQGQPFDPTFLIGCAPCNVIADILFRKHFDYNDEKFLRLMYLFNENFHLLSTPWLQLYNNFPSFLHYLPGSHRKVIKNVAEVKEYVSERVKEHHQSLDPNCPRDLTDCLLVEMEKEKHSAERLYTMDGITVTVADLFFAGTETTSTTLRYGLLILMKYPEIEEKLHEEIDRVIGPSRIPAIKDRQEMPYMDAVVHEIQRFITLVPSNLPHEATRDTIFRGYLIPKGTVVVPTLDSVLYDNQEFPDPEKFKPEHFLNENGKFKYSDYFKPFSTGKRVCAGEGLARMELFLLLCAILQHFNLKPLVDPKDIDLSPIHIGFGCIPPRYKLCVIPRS

Plasma [2] = test: Drug metabolism in Sprague-Dawley rat plasma assessed as metabolite M2 formation at 40 mg/kg, iv administered as single dose after 4 to 24 hrs by HPLC-TIC chromatography; assay type: ADME, organism-based; settings: in vivo
[3] = Drug metabolism in Sprague-Dawley rat feces assessed as metabolite M4 formation at 40 mg/kg, iv administered as single dose after 24 hrs by HPLC-TIC chromatography; assay type: ADME, organism-based; settings: in vivo
Cytochrome P450 2C9 = Cytochrome P450 2C9 (Homo sapiens, UniProt P11712); test: Drug metabolism assessed as recombinant human CYP2C9 mediated metabolite formation at 10 uM preincubated for 5 mins followed by addition of NADPH measured after 120 mins by HPLC-TIC chromatography; assay type: ADME; settings: recombinant enzyme, 2 h
Sequence of Cytochrome P450 2C9 (P11712 whole entry): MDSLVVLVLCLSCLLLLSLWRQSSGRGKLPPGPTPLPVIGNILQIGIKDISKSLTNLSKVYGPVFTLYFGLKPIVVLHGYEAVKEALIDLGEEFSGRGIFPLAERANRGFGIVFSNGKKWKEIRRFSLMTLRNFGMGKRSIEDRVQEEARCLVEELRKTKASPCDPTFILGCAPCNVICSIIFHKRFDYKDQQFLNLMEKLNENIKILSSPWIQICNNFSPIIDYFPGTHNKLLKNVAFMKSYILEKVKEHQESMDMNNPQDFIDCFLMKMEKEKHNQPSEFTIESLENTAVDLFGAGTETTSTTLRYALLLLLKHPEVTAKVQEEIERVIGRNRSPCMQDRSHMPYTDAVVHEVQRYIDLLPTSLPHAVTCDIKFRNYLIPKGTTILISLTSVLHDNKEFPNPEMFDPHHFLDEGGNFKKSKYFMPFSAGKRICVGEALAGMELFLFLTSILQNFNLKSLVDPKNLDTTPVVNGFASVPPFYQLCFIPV

[4] = Drug metabolism in Sprague-Dawley rat urine assessed as metabolite M3 formation at 40 mg/kg, iv administered as single dose after 24 hrs by HPLC-TIC chromatography; assay type: ADME, organism-based; settings: in vivo
Cytochrome P450 3A4 [5] = biological target: T3, Cytochrome P450 3A4 (Homo sapiens, UniProt P08684); test: Drug metabolism assessed as recombinant human CYP3A4 mediated metabolite M3 formation at 10 uM preincubated for 5 mins followed by addition of NADPH measured after 120 mins by HPLC-TIC chromatography; assay type: ADME; settings: recombinant enzyme, 2 h
T3 sequence (P08684 whole entry): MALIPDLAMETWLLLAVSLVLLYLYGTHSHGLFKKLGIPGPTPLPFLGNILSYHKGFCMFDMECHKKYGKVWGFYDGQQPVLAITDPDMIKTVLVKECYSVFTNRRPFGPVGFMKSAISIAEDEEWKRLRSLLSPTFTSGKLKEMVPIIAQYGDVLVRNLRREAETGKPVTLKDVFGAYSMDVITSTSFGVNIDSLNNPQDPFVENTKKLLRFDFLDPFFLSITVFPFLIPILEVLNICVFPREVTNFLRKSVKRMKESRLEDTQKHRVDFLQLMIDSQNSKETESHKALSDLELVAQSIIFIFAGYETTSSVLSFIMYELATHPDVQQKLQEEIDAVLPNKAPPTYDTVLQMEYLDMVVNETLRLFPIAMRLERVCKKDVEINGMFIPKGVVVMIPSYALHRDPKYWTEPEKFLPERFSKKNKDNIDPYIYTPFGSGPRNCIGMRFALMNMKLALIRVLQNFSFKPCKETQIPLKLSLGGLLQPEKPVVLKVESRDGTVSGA

[6] = Cytotoxicity against human SKOV3 cells; assay type: functional, cell-based; settings: SK-OV-3
Cytochrome P450 2D6 = Cytochrome P450 2D6 (Homo sapiens, UniProt P10635); test: Drug metabolism assessed as recombinant human CYP2D6 mediated metabolite formation at 10 uM preincubated for 5 mins followed by addition of NADPH measured after 120 mins by HPLC-TIC chromatography; assay type: ADME; settings: recombinant enzyme, 2 h
Sequence of Cytochrome P450 2D6 (P10635 whole entry): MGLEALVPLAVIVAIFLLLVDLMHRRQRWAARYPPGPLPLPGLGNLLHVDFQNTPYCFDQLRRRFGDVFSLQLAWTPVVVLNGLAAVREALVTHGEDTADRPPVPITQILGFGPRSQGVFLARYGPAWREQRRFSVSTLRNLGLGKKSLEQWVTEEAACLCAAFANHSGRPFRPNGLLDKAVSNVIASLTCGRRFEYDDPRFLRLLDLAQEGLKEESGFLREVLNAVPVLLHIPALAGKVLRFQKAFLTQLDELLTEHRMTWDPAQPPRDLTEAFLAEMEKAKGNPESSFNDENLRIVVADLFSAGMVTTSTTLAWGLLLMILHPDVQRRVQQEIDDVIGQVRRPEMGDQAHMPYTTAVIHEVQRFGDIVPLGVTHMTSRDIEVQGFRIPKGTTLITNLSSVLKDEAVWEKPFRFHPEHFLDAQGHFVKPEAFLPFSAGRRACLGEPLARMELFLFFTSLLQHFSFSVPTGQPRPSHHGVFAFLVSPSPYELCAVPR

Cytochrome P450 3A5 [7] = biological target: T4, Cytochrome P450 3A5 (Homo sapiens, UniProt P20815); test: Drug metabolism assessed as recombinant human CYP3A5 mediated metabolite M1 formation at 10 uM preincubated for 5 mins followed by addition of NADPH measured after 120 mins by HPLC-TIC chromatography; assay type: ADME; settings: recombinant enzyme, 2 h
T4 sequence (P20815 whole entry): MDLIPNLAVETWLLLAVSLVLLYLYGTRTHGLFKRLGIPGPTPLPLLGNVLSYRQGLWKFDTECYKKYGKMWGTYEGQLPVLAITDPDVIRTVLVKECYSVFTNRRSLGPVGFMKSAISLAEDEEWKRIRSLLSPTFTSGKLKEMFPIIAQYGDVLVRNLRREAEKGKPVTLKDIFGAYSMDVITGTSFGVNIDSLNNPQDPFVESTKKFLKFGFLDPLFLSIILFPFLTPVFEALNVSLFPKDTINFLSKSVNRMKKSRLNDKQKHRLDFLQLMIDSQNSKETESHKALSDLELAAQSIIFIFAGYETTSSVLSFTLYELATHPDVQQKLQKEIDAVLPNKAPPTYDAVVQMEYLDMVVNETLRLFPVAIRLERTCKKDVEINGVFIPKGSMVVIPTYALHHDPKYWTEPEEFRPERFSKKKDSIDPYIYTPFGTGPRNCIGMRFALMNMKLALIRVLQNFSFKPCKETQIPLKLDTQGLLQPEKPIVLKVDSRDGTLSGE

Cytochrome P450 3A4 [8] = biological target: T3, Cytochrome P450 3A4; test: Drug metabolism assessed as recombinant human CYP3A4 mediated metabolite M1 formation at 10 uM preincubated for 5 mins followed by addition of NADPH measured after 120 mins by HPLC-TIC chromatography; assay type: ADME; settings: recombinant enzyme, 2 h
Plasma [9] = test: Drug metabolism in Sprague-Dawley rat plasma assessed as 7-epi-3FDT formation at 40 mg/kg, iv administered as single dose after 4 to 24 hrs by HPLC-TIC chromatography; assay type: ADME, organism-based; settings: in vivo
Plasma [10] = test: Drug metabolism in Sprague-Dawley rat plasma assessed as metabolite M3 formation at 40 mg/kg, iv administered as single dose after 4 to 24 hrs by HPLC-TIC chromatography; assay type: ADME, organism-based; settings: in vivo
[11] = AUC (0 to infinity) in Sprague-Dawley rat; assay type: ADME, organism-based; design: time infinity; settings: in vivo
[12] = Drug metabolism in Sprague-Dawley rat urine assessed as metabolite M2 formation at 40 mg/kg, iv administered as single dose after 24 hrs by HPLC-TIC chromatography; assay type: ADME, organism-based; settings: in vivo
[13] = Total clearance in Sprague-Dawley rat plasma; assay type: ADME, organism-based
Plasma [14] = test: Drug metabolism in Sprague-Dawley rat plasma assessed as metabolite M1 formation at 40 mg/kg, iv administered as single dose after 4 to 24 hrs by HPLC-TIC chromatography; assay type: ADME, organism-based; settings: in vivo
[15] = Drug metabolism in Sprague-Dawley rat feces assessed as metabolite M8 formation at 40 mg/kg, iv administered as single dose after 24 hrs by HPLC-TIC chromatography; assay type: ADME, organism-based; settings: in vivo
Plasma [16] = test: Drug metabolism in Sprague-Dawley rat plasma assessed as metabolite M4 formation at 40 mg/kg, iv administered as single dose after 4 to 24 hrs by HPLC-TIC chromatography; assay type: ADME, organism-based; settings: in vivo
[17] = Drug metabolism in Sprague-Dawley rat feces assessed as metabolite M2 formation at 40 mg/kg, iv administered as single dose after 24 hrs by HPLC-TIC chromatography; assay type: ADME, organism-based; settings: in vivo
Cytochrome P450 2B6 = biological target: T5, Cytochrome P450 2B6 (Homo sapiens, UniProt P20813); test: Drug metabolism assessed as recombinant human CYP2B6 mediated metabolite formation at 10 uM preincubated for 5 mins followed by addition of NADPH measured after 120 mins by HPLC-TIC chromatography; assay type: ADME; settings: recombinant enzyme, 2 h
T5 sequence (P20813 whole entry): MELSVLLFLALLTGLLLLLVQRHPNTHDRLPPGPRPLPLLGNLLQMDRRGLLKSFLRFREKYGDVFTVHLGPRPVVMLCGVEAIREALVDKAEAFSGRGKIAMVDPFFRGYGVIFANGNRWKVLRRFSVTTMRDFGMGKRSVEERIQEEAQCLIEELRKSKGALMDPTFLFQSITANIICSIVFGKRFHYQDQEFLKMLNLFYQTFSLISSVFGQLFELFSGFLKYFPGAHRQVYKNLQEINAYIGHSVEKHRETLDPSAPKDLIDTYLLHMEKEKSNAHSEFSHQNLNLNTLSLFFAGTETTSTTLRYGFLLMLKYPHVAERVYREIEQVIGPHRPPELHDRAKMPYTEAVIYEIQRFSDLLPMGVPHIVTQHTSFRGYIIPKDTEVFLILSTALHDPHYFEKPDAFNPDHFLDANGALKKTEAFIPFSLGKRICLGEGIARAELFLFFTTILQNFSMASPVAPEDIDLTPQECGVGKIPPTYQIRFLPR

[18] = Drug metabolism in Sprague-Dawley rat feces assessed as metabolite M3 formation at 40 mg/kg, iv administered as single dose after 24 hrs by HPLC-TIC chromatography; assay type: ADME, organism-based; settings: in vivo
[19] = Drug metabolism in Sprague-Dawley rat urine assessed as metabolite M4 formation at 40 mg/kg, iv administered as single dose after 24 hrs by HPLC-TIC chromatography; assay type: ADME, organism-based; settings: in vivo
[20] = Apparent volume of distribution in Sprague-Dawley rat; assay type: ADME, organism-based; settings: in vivo, read-out: Vd(app)
Cytochrome P450 1A2 = biological target: T6, Cytochrome P450 1A2 (Homo sapiens, UniProt P05177); test: Drug metabolism assessed as recombinant human CYP1A2 mediated metabolite formation at 10 uM preincubated for 5 mins followed by addition of NADPH measured after 120 mins by HPLC-TIC chromatography; assay type: ADME; settings: recombinant enzyme, 2 h
T6 sequence (P05177 whole entry): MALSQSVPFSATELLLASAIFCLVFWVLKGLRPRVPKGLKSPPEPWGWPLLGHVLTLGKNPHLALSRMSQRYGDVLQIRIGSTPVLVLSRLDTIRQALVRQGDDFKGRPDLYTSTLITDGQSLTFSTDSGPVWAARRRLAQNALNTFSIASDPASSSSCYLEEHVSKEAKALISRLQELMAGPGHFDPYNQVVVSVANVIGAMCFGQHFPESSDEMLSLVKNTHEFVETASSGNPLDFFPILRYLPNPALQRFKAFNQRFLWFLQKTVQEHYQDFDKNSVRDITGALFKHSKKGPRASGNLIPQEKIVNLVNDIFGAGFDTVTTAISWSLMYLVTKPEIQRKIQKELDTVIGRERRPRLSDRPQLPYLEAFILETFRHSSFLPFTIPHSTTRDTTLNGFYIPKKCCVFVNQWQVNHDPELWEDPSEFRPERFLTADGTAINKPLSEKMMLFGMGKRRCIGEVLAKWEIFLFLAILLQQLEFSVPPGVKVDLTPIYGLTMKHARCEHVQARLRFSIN

[21] = Drug metabolism in Sprague-Dawley rat feces assessed as metabolite M7 formation at 40 mg/kg, iv administered as single dose after 24 hrs by HPLC-TIC chromatography; assay type: ADME, organism-based; settings: in vivo
[22] = Drug metabolism in Sprague-Dawley rat urine assessed as 7-epi-3FDT formation at 40 mg/kg, iv administered as single dose after 24 hrs by HPLC-TIC chromatography; assay type: ADME, organism-based; settings: in vivo
[23] = AUC (0 to t) in Sprague-Dawley rat; assay type: ADME, organism-based; settings: in vivo
Cytochrome P450 3A5 [24] = biological target: T4, Cytochrome P450 3A5; test: Drug metabolism assessed as recombinant human CYP3A5 mediated metabolite M2 formation at 10 uM preincubated for 5 mins followed by addition of NADPH measured after 120 mins by HPLC-TIC chromatography; assay type: ADME; settings: recombinant enzyme, 2 h
[25] = Drug metabolism in Sprague-Dawley rat feces assessed as metabolite M6 formation at 40 mg/kg, iv administered as single dose after 24 hrs by HPLC-TIC chromatography; assay type: ADME, organism-based; settings: in vivo
Cytochrome P450 3A4 [26] = biological target: T3, Cytochrome P450 3A4; test: Drug metabolism assessed as recombinant human CYP3A4 mediated metabolite M2 formation at 10 uM preincubated for 5 mins followed by addition of NADPH measured after 120 mins by HPLC-TIC chromatography; assay type: ADME; settings: recombinant enzyme, 2 h
[27] = Drug metabolism in Sprague-Dawley rat urine assessed as metabolite M1 formation at 40 mg/kg, iv administered as single dose after 24 hrs by HPLC-TIC chromatography; assay type: ADME, organism-based; settings: in vivo

CC(=O)O[C@@]12CO[C@@H]1C[C@H](O)[C@@]1(C)C(=O)[C@H](O)C3=C(C)[C@@H](OC(=O)[C@H](O)[C@@H](NC(=O)OC(C)(C)C(F)(F)F)c4ccccc4)C[C@@](O)([C@@H](OC(=O)c4ccccc4)C12)C3(C)C (stereo not given in full)
11.00: pIC50 [6]
metabolite_detected: Drug metabolism [1] | Drug metabolism (Cytochrome P450 2E1) | Drug metabolism [3] | Drug metabolism (Cytochrome P450 3A4 [5]) | Drug metabolism (Cytochrome P450 3A5 [7]) | Drug metabolism (Cytochrome P450 3A4 [8]) | Drug metabolism (Plasma [9]) | Drug metabolism [15] | Drug metabolism (Plasma [16]) | Drug metabolism [17] | Drug metabolism [18] | Drug metabolism [19] | Drug metabolism [21] | Drug metabolism [22] | Drug metabolism (Cytochrome P450 3A5 [24]) | Drug metabolism [25] | Drug metabolism (Cytochrome P450 3A4 [26])
3960 ng·h/mL: AUC(0-inf) [11]
3860 ng·h/mL: AUC(0-t) [23]
18.1 L/kg: Vd [20]
21 mL/min/kg: clearance [13]
metabolite_notdetected: Drug metabolism (Cytochrome P450 2C8) | Drug metabolism (Cytochrome P450 2C19) | Drug metabolism (Cytochrome P450 2A6) | Drug metabolism (Plasma [2]) | Drug metabolism (Cytochrome P450 2C9) | Drug metabolism [4] | Drug metabolism (Cytochrome P450 2D6) | Drug metabolism (Plasma [10]) | Drug metabolism [12] | Drug metabolism (Plasma [14]) | Drug metabolism (Cytochrome P450 2B6) | Drug metabolism (Cytochrome P450 1A2) | Drug metabolism [27]
